Reference: the supplement of paper PMC11551840

Key:
Experiment in all cases: IC50 (cell viability, 72 h) (ln(µM))
[1] = test system: ORL-215
Protocol: (§1)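 Discovery screen of OSCC cell lines in 1,536-well plates. Cells were treated 24 h after seeding with 7 concentrations spanning a 1,000-fold half-log range for 72 h, and viability was read by CellTiter-Glo 2.0 and normalised to DMSO (1) and medium-only (0) controls. IC50 comes from a two-parameter logistic nonlinear mixed-effects fit and is reported as natural log of IC50 in µM.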

[2] = test system: ORL-188
Protocol: as §1

[3] = test system: ORL-214
Protocol: as §1

[4] = test system: ORL-174
Protocol: as §1

[5] = test system: ORL-150
Protocol: as §1

[6] = test system: PE-CA-PJ15
Protocol: as §1

[7] = test system: HO-1-u-1
Protocol: as §1

[8] = test system: BICR10
Protocol: as §1

[9] = test system: ORL-166
Protocol: as §1

[10] = test system: SCC-9
Protocol: as §1

[11] = test system: HSC-2
Protocol: as §1

[12] = test system: ORL-204
Protocol: as §1

[13] = test system: ORL-156
Protocol: as §1

[14] = test system: ORL-195
Protocol: as §1

[15] = test system: ORL-115
Protocol: as §1

[16] = test system: ORL-136
Protocol: as §1

[17] = test system: SAS
Protocol: as §1

[18] = test system: ORL-207
Protocol: as §1

[19] = test system: ORL-48
Protocol: as §1

[20] = test system: HSC-4
Protocol: as §1

[21] = test system: ORL-153
Protocol: as §1

Structure (SMILES)	IC50 (ln) [1]	IC50 (ln) [2]	IC50 (ln) [3]	IC50 (ln) [4]	IC50 (ln) [5]	IC50 (ln) [6]	IC50 (ln) [7]	IC50 (ln) [8]	IC50 (ln) [9]	IC50 (ln) [10]	IC50 (ln) [11]	IC50 (ln) [12]	IC50 (ln) [13]	IC50 (ln) [14]	IC50 (ln) [15]	IC50 (ln) [16]	IC50 (ln) [17]	IC50 (ln) [18]	IC50 (ln) [19]	IC50 (ln) [20]	IC50 (ln) [21]
CCNC(=O)c1noc(-c2cc(C(C)C)c(O)cc2O)c1-c1ccc(CN2CCOCC2)cc1 [Luminespib]	-3.76	-4.38	-4.45	-4.47	-3.97	-2.87	-4.16	-3.95	-2.05	-2.72	-4.34	-2.64	-3.29	-4.03	-1.26	-3.13	-3.87	-4.84	-4.29	-2.55	-3.79
CC(C)C[C@@H](C=O)NC(=O)[C@H](CC(C)C)NC(=O)[C@H](CC(C)C)NC(=O)OCc1ccccc1 [MG-132]	-1.39	-1.21	-1.68	-1.61	-0.689	-0.875	-1.98	-0.312	-1.11	-0.805	-1.34	-1.04	-0.951	-1.32	-0.897	-1.24	-1.28	-1.48	-1.04	-0.832	-1.31
CC(=O)O[C@H]1C(=O)[C@@]2(C)[C@H]([C@H](OC(=O)c3ccccc3)[C@]3(O)C[C@H](OC(=O)[C@H](O)[C@@H](NC(=O)c4ccccc4)c4ccccc4)C(C)=C1C3(C)C)[C@]1(OC(C)=O)CO[C@@H]1C[C@@H]2O [Paclitaxel]	-5.5	-6.34	-5.78	-5.25	-6.11	-2.85	-3.72	-4.85	-5.21	-3.62	-5.85	-4.96	-4.99	-4.66	-4.44	-2.48	-3.47	-5.88	-5.51	-2.73	-4.87
Cc1[nH]c2ccccc2c1CCNCc1ccc(/C=C/C(=O)NO)cc1 [Panobinostat]	-1.39	-2	-1.97	-2.11	-1.77	-0.846	-1.92	-0.934	-2.65	0.43	-1.23	-1.01	-2.16	-1.26	0.481	-0.667	-1.8	-2.37	-2.37	-0.0634	-2.26
CO[C@H]1C[C@@H]2CC[C@@H](C)[C@@](O)(O2)C(=O)C(=O)N2CCCC[C@H]2C(=O)O[C@H]([C@H](C)C[C@@H]2CC[C@@H](O)[C@H](OC)C2)CC(=O)[C@H](C)/C=C(\C)[C@@H](O)[C@@H](OC)C(=O)[C@H](C)C[C@H](C)/C=C/C=C/C=C/1C [Rapamycin]	-0.198	-2.93	-4.26	-3.89	-1.89	-0.663	-2.71	-2.25	-2.82	-0.629	-2.87	-1.41	-3.47	-2.97	-0.458	-2.47	-0.895	-3.35	-2.12	-1.49	-2.68
C/C=C1\NC(=O)[C@H]2CSSCC/C=C/[C@H](CC(=O)N[C@H](C(C)C)C(=O)N2)OC(=O)[C@H](C(C)C)NC1=O [Romidepsin]	-4.27	-5.03	-3.64	-5.44	-5.04	-3.12	-5.24	-4.05	-5.72	-3.68	-4.88	-4.13	-4.55	-3.85	-3.74	-4.02	-4.87	-4.74	-5.62	-2.03	-5.8
CCc1c2c(nc3ccc(O)cc13)-c1cc3c(c(=O)n1C2)COC(=O)[C@]3(O)CC [SN-38]	-3.53	-4.81	-5.1	-3.86	-3.32	-2.9	-1.5	-1.02	-3.75	-0.268	-5.53	-5	-2.97	-2.3	-1.9	-0.854	-5.93	-5.13	-2.86	-4.28	-4.49
COCC[n+]1c2c(n(Cc3cnccn3)c1C)C(=O)c1ccccc1C2=O [Sepantronium bromide]	-3.91	-4.09	-5.54	-4.12	-4.45	-4.17	-3.53	-2.2	-2.05	-6.15	-5.94	-3.1	-6.01	-2.96	-1.33	-6.45	-6.78	-5.9	-6.01	-4.35	-5.11
